Key:
Type in all cases: in vivo, human
[1] = tested on: patients with findings consistent with mild AD or amnestic MCI; assay: CANTAB Paired Associates Learning (PAL), 4-week placebo-controlled study; details: 15 mg daily oral, study day 1
Description: (§1) The following example illustrates the methods of the invention, in which a 4-week, parallel-group, randomized, double-blind, placebo-controlled, adaptive proof of concept study of AQW051 at up to three dose levels for the treatment of patients with findings consistent with mild Alzheimer's disease (AD) or Mild Cognitive Impairment (amnestic MCI) was conducted in two stages.
(§2) To assess AQW051 as a cognitive enhancer, as measured by selected tests [Paired Associates Learning (PAL), Spatial Working Memory (SWM), Rapid Visual Information Processing (RVP)] from the Cambridge Neuropsychological Test Automated Battery (CANTAB) computerized cognitive test battery, in patients with findings consistent with mild AD or amnestic MCI.
(§3) The investigational drug AQW51 was provided as either 0.5 mg, 5 mg, or 25 mg capsules. In stage I only 5 mg capsules were used. All groups received 15 mg of AQW051 daily for 4 weeks.
(§4) On Day 1, 8, 15, 22 and 28, the study drug was administered by study personnel and was taken orally with 240 ml of water after light breakfast. On all other study treatment days, patients self-administered the study medication in the morning after light breakfast.
(§5) The different CANTAB readouts were analyzed separately by rank analyses of covariance, including “treatment” and “stratum” (MCI, AD) as fixed effects and the corresponding baseline value as covariate. The comparison of interest was the contrast between active treatment and placebo; tests were performed to the one-sided 10% level without multiplicity-adjustment. Point and interval estimates were produced by the baseline-adjusted stratified Hodges-Lehmann method. In addition, sensitivity analyses were performed using standard analyses of covariance, to complement the aforementioned nonparametric methods. The items “errors at the 6 pattern stage” and “total trials adjusted” of the PAL task at day 28 played a key role at the interim analysis. At the end of stage 1, the conditional power of the study to reach an overall significant result in both these key endpoints at the final analysis was estimated by bootstrap methods. The different scores from the ADAS-Cog, QoL-AD, the DAD and the MMSE were analyzed using standard analyses of covariance. Safety and tolerability variables measures were analyzed by means of descriptive statistics.

[2] = tested on: patients with findings consistent with mild AD or amnestic MCI; assay: CANTAB Spatial Working Memory (SWM), 4-week placebo-controlled study; details: 15 mg daily oral, study day 28
Description: as §1, §2, §3, §4, §5

[3] = tested on: patients with findings consistent with mild AD or amnestic MCI; assay: CANTAB Rapid Visual Information Processing (RVP), 4-week placebo-controlled study; details: 15 mg daily oral, study day 1
Description: as §1, §2
The investigational drug AQW51 was provided as either 0.5 mg, 5 mg, or 25 mg capsules. In stage I only 5 mg capsules were used. All groups received 15 mg of AQW051 daily for 4 weeks. […]
(§6) The different CANTAB readouts were analyzed separately by rank analyses of covariance, including “treatment” and “stratum” (MCI, AD) as fixed effects and the corresponding baseline value as covariate. […] The different scores from the ADAS-Cog, QoL-AD, the DAD and the MMSE were analyzed using standard analyses of covariance. Safety and tolerability variables measures were analyzed by means of descriptive statistics.

[4] = tested on: patients with findings consistent with mild AD or amnestic MCI; assay: CANTAB Choice Reaction Time (CRT), 4-week placebo-controlled study; details: 15 mg daily oral, study day 28
Description: as §1
(§7) To explore effects of AQW051 on other cognitive functions not assessed by the primary measures (CANTAB tests Pattern Recognition Memory (PRM), Choice Reaction Time (CRT), Graded Naming Test-Revised (GNT).
as §3, §4, §5

[5] = tested on: patients with findings consistent with mild AD or amnestic MCI; assay: CANTAB Graded Naming Test-Revised (GNT), 4-week placebo-controlled study; details: 15 mg daily oral; study day 28; PD analysis set N=54; p=0.8191
Description: as §1, §7, §3
On Day 1, 8, 15, 22 and 28, the study drug was administered by study personnel and was taken orally with 240 ml of water after light breakfast. […]
as §6

[6] = tested on: patients with findings consistent with mild AD or amnestic MCI; assay: CANTAB Pattern Recognition Memory (PRM), 4-week placebo-controlled study; details: 15 mg daily oral, study day 28, PD analysis set N=54
Description: as §1, §7, §3, §4, §5

[7] = tested on: patients with findings consistent with mild AD or amnestic MCI; assay: Adverse events, safety analysis set, 4-week placebo-controlled study; details: 15 mg daily oral, 4 weeks
Description: as §1
To explore the safety and tolerability of AQW051 in patients with findings consistent with mild AD or amnestic MCI.
as §3, §4, §5
Under one treatment, a subject with multiple occurrences of an adverse event is counted only once in the AE category. N=number of subject studied; n=number of subjects with at least 1 AE in the category. Only adverse events occurring at or after first drug intake are included.

Compound: Cc1ccc(-c2ccc(O[C@H]3CN4CCC3CC4)cn2)cc1 [AQW051, (R)-3-(6-p-tolyl-pyridin-3-yloxy)-1-aza-bicyclo[2.2.2]octane]
- PAL of total errors (2 shapes adj), Difference AQW051 15 mg vs. Placebo ([1]; MCI patient only N=38, p=0.0239): 0
- PAL total trials (adj), Difference AQW051 15 mg vs. Placebo ([1]; MCI patient only N=38, p=0.0877): −1.5
- PAL total errors (2 shapes adj), Difference AQW051 15 mg vs. Placebo ([1]; all patients N=54, p=0.0142): 0
- PAL total errors (6 shapes adj), Difference AQW051 15 mg vs. Placebo ([1]; all patients N=54, p=0.0840): −2
- PAL total trials (adj), Difference AQW051 15 mg vs. Placebo ([1]; all patients N=54, p=0.0846): −1
- SWM Between errors (6 boxes), Difference AQW051 15 mg vs. Placebo ([2]; MCI patient only N=38, p=0.0290): −2.5
- SWM Between errors, Difference AQW051 15 mg vs. Placebo ([2]; MCI patient only N=38, p=0.0845): −5
- SWM Between errors (6 boxes), Difference AQW051 15 mg vs. Placebo ([2]; all patients N=54, p=0.0430): −2
- SWM Between errors, Difference AQW051 15 mg vs. Placebo ([2]; all patients N=54, p=0.0701): −3.5
- SWM Between errors (4 boxes), Difference AQW051 15 mg vs. Placebo ([2]; all patients N=54, p=0.0866): −0.5
- RVP Mean latency, Difference AQW051 15 mg vs. Placebo ([3]; MCI patient only N=38, p=0.0419): −22
- RVP Mean latency, Difference AQW051 15 mg vs. Placebo ([3]; all patients N=54, p=0.0292): −21.5
- CRT Percent correct trials, Difference AQW051 15 mg vs. Placebo ([4]; MCI patient only N=38, p=0.0918): 0.5
- CRT Median latency, Difference, AQW051 15 mg vs. placebo ([4]; MCI patient only N=38, p=0.0966): −23
- CRT Median latency, Difference, AQW051 15 mg vs. placebo ([4]; PD analysis set N=54, p=0.3273): −9.5
- CRT Percent correct trials, Difference AQW051 15 mg vs. Placebo ([4]; all patients N=54, p=0.0632): 0.5
- GNT Total correct, Difference, AQW051 15 mg vs. placebo [5]: −1.5
- PRM Percent correct delayed, Difference, AQW051 15 mg vs. placebo ([6]; p=0.4244): 0
- PRM Mean correct latency delayed, Difference, AQW051 15 mg vs. placebo ([6]; p=0.7864): 150 ms
- PRM Percent correct immediate, Difference, AQW051 15 mg vs. placebo ([6]; p=0.8090): −4
- PRM Mean correct latency immediate, Difference, AQW051 15 mg vs. placebo ([6]; p=0.8328): 198 ms
- Flatulence related to study drug, (%) ([7]; AD N = 7): 14.3%
- Patients with AE(s) related to study drug, (%) ([7]; AD N = 7): 14.3%
- Constipation related to study drug, (%) ([7]; MCI N = 20): 5.0%
- Dysgraphia related to study drug, (%) ([7]; MCI N = 20): 5.0%
- Headache related to study drug, (%) ([7]; MCI N = 20): 10.0%
- Increased tendency to bruise related to study drug, (%) ([7]; MCI N = 20): 5.0%
- Muscle spasms related to study drug, (%) ([7]; MCI N = 20): 5.0%
- Pain in extremity related to study drug, (%) ([7]; MCI N = 20): 5.0%
- Patients with AE(s) related to study drug, (%) ([7]; MCI N = 20): 15.0%
- Pruritus related to study drug, (%) ([7]; MCI N = 20): 5.0%
- Bronchitis AE, (%) of subjects ([7]; N = 27): (3.7) %
- Bronchitis AE, n of subjects ([7]; N = 27): 1
- Chalazion AE, (%) of subjects ([7]; N = 27): (3.7) %
- Chalazion AE, n of subjects ([7]; N = 27): 1
- Constipation AE, (%) of subjects ([7]; N = 27): (3.7) %
- Constipation AE, n of subjects ([7]; N = 27): 1
- Dysgraphia AE, (%) of subjects ([7]; N = 27): (3.7) %
- Dysgraphia AE, n of subjects ([7]; N = 27): 1
- Ear and Labyrinth disorders AEs, (%) of subjects ([7]; N = 27): (3.7) %
- Ear and Labyrinth disorders AEs, n of subjects ([7]; N = 27): 1
- Epistaxis AE, (%) of subjects ([7]; N = 27): (3.7) %
- Epistaxis AE, n of subjects ([7]; N = 27): 1
- Eye disorders AEs, (%) of subjects ([7]; N = 27): (3.7) %
- Eye disorders AEs, n of subjects ([7]; N = 27): 1
- Flatulence AE, (%) of subjects ([7]; N = 27): (3.7) %
- Flatulence AE, n of subjects ([7]; N = 27): 1
- Gastrointestinal disorders AEs, (%) of subjects ([7]; N = 27): (7.4) %
- Gastrointestinal disorders AEs, n of subjects ([7]; N = 27): 2
- Headache AE, (%) of subjects ([7]; N = 27): (7.4) %
- Headache AE, n of subjects ([7]; N = 27): 2
- Hepatic function abnormal AE, (%) of subjects ([7]; N = 27): (3.7) %
- Hepatic function abnormal AE, n of subjects ([7]; N = 27): 1
- Hepatobiliary disorders AEs, (%) of subjects ([7]; N = 27): (3.7) %
- Hepatobiliary disorders AEs, n of subjects ([7]; N = 27): 1
- Increased tendency to bruise AE, (%) of subjects ([7]; N = 27): (3.7) %
- Increased tendency to bruise AE, n of subjects ([7]; N = 27): 1
- Infections and infestations AEs, (%) of subjects ([7]; N = 27): (11.1) %
- Infections and infestations AEs, n of subjects ([7]; N = 27): 3
- Laryngitis AE, (%) of subjects ([7]; N = 27): (3.7) %
- Laryngitis AE, n of subjects ([7]; N = 27): 1
- Muscle spasms AE, (%) of subjects ([7]; N = 27): (3.7) %
- Muscle spasms AE, n of subjects ([7]; N = 27): 1
- Musculoskeletal and connective tissue disorders AEs, (%) of subjects ([7]; N = 27): (7.4) %
- Musculoskeletal and connective tissue disorders AEs, n of subjects ([7]; N = 27): 2
- Nasopharyngitis AE, (%) of subjects ([7]; N = 27): (3.7) %
- Nasopharyngitis AE, n of subjects ([7]; N = 27): 1
- Nervous system disorders AEs, (%) of subjects ([7]; N = 27): (7.4) %
- Nervous system disorders AEs, n of subjects ([7]; N = 27): 2
- Pain in extremity AE, (%) of subjects ([7]; N = 27): (7.4) %
- Pain in extremity AE, n of subjects ([7]; N = 27): 2
- Patients with AEs, (%) of subjects ([7]; N = 27): (40.7) %
- Patients with AEs, n of subjects ([7]; N = 27): 11
- Pruritus AE, (%) of subjects ([7]; N = 27): (3.7) %
- Pruritus AE, n of subjects ([7]; N = 27): 1
- Respiratory, thoracic and mediastinal disorders AEs, (%) of subjects ([7]; N = 27): (3.7) %
- Respiratory, thoracic and mediastinal disorders AEs, n of subjects ([7]; N = 27): 1
- Skin and subcutaneous disorders AEs, (%) of subjects ([7]; N = 27): (7.4) %
- Skin and subcutaneous disorders AEs, n of subjects ([7]; N = 27): 2
- Skin lesion AE, (%) of subjects ([7]; N = 27): (3.7) %
- Skin lesion AE, n of subjects ([7]; N = 27): 1
- Tympanic membrane perforation AE, (%) of subjects ([7]; N = 27): (3.7) %
- Tympanic membrane perforation AE, n of subjects ([7]; N = 27): 1
- Constipation related to study drug, (%) ([7]; Total N = 27): 3.7%
- Dysgraphia related to study drug, (%) ([7]; Total N = 27): 3.7%
- Flatulence related to study drug, (%) ([7]; Total N = 27): 3.7%
- Headache related to study drug, (%) ([7]; Total N = 27): 7.4%
- Increased tendency to bruise related to study drug, (%) ([7]; Total N = 27): 3.7%
- Muscle spasms related to study drug, (%) ([7]; Total N = 27): 3.7%
- Pain in extremity related to study drug, (%) ([7]; Total N = 27): 3.7%
- Patients with AE(s) related to study drug, (%) ([7]; Total N = 27): 14.8%
- Pruritus related to study drug, (%) ([7]; Total N = 27): 3.7%

Source: patent publication US11433057B2, “Method for improving or enhancing cognition” (VANDA PHARMACEUTICALS INC., priority 2016, dated 2022)
